# From patent US20230053119A1, “FUSION POLYPEPTIDE COMPRISING Fc REGION OF IMMUNOGLOBULIN AND GDF15” (LG CHEM, LTD., priority 2019, published 2023)
# Key:
# Assay type in all cases: in vivo
# [1] = Pharmacodynamic (PK) test in SD rat, serum concentration by Human GDF15 ELISA; settings: 2 mg/kg subcutaneous
# Experimental: For evaluation of pharmacodynamic characteristics when each polypeptide was subcutaneously administered to rats, polypeptide IgG4-GDF or IgG4-GDF(CRL) was subcutaneously administered in an amount of 2 mg/kg, respectively, to SD Rat (Koatech, male, 7 weeks, about 250g; n=3 each; test group), and at a fixed time, blood was collected about […] through a caudal vein. Blood collecting was progressed before administration of the fusion polypeptide, in 1, 2, 4, 8, 24, 48, 72, 96, 168, 240 and 336 hours after administration. As a control group for comparison of pharmacodynamic characteristics, GDF15 (R&D Systems) was subcutaneously administered in an amount of 2 mg/kg by the same method as above to prepare GDF15 administration group.
# After administering to SD Rat as above, blood collected by time-point was centrifuged to obtain serum, and ELISA was performed using Human GDF15 Immunoassay (SGD150, R&D Systems), to measure the concentration in serum over time for each polypeptide.
# [2] = test system: DIO mouse model (C57BL/6J-DIO); assay: Weight change in DIO mice after HIgG1-GDF(CRL) / IgG1-GDF(CRL) administration; settings: for Body Weight, Mean: 2.86 nmol/kg s.c. Daily Inj. for 5 days
# Experimental: (§1) The pharmacological effect of the fusion polypeptide produced and purified in Example 1 was tested in mice (C57BL/6J, 6 weeks, male, 100 mice; RaonBio).
# (§2) All the control material and test materials were administered subcutaneously. The administration route of the control material and test materials was selected as a subcutaneous route depending on the clinical intended route of administration.
# The dose of all the control material and test materials was 5 mL/kg, and the dose by individual was calculated on the basis of the recently measured weight, […] (1 mL). […] For comparison, the control group in which the control material GDF15 was prepared, and for the comparison group in which GDF15 was administered, they were administered once a day for 5 days, 5 times in total, and all administrations were progressed from 9 AM.
# The weight of each mouse was measured at the day of the start of administration of the test materials (before administration), and then the weight was measured every day (measured by 9 days at maximum). The dose of the test materials was determined on the basis of the most recently measured weight.
# [3] = test system: DIO mouse model (C57BL/6J-DIO); assay: Feed intake in DIO mice after HIgG1-GDF(CRL) / IgG1-GDF(CRL) administration; settings: 2.86 nmol/kg s.c. Daily Inj. for 5 days
# Experimental: as §1, §2
# The dose of all the control material and test materials was 5 mL/kg, and the dose by individual was calculated on the basis of the recently measured weight, and they were administered subcutaneously once at the test start day using a disposable syringe (1 mL). […] For comparison, the control group in which the control material GDF15 was prepared, and for the comparison group in which GDF15 was administered, they were administered once a day for 5 days, 5 times in total, and all administrations were progressed from 9 AM.
# (§3) In addition, after administering the test materials to mice, the feed intake was measured every day, and the amount of feeding was measured using an electronic scale by each breeding box, and then the residual amount was measured to calculate the feed intake a day. Individuals who severely ate the feed were excluded from the measurement.
# [4] = test system: DIO mouse model (C57BL/6J-DIO); assay: Feed intake in DIO mice after IgG4-GDF / IgG4-GDF(CRL) administration; settings: 3 nmol/kg s.c. Daily Inj.
# Experimental: as §1
# (§4) Semaglutide (Bachem) were subcutaneously administered. The dose of all the control material and test materials was 5 mL/kg, and the dose by individual was calculated on the basis of the recently measured weight, […] (1 mL). […] For a comparison group in which Semaglutide was administered, Semaglutide were administered every day once a day. All administrations were progressed from 9 AM.
# as §3
# [5] = test system: DIO mouse model (C57BL/6J-DIO); assay: Weight change in DIO mice after IgG4-GDF / IgG4-GDF(CRL) administration; settings: for Body Weight, Mean: 3 nmol/kg s.c. Daily Inj.
# Experimental: as §1
# The test materials (IgG4-GDF ? GDF IgG4-GDF(CRL)) and control material
# as §4
# The weight of each mouse was measured at the day of the start of administration of the test materials (before administration), and then the weight was measured every day (measured by 19 days at maximum). The dose of the test materials was determined on the basis of the most recently measured weight.
substance,measurement,setting,value
"GDF15: control material GDF15 (R&D Systems), Growth/differentiation factor 15 not fused with Fc",AUCextp,[1]; [(AUCinf − AUClast)/AUCinf]*100,0.463%
same,AUClast,[1]; serum,4860 ng·h/mL
same,Cmax (maximum blood concentration),[1]; serum,443 ng/mL
same,Tmax (time to reach maximum blood concentration),[1]; serum,1 h
same,half-life,[1]; serum,19 h
same,t1/2 (elimination half-life),[1]; serum,19.0 h
same,AUCinf,"[1]; serum, extrapolated to infinite time",4880 ng·h/mL
same,"Body Weight, Mean",[2]; Day 0,100 % of initial
same,"Body Weight, Mean",[2]; Day 1,99 % of initial
same,"Body Weight, Mean",[2]; Day 2,98 % of initial
same,"Body Weight, Mean",[2]; Day 3,97 % of initial
same,"Body Weight, Mean",[2]; Day 4,96 % of initial
same,"Body Weight, Mean",[2]; Day 5,95 % of initial
same,"Body Weight, Mean",[2]; Day 6,95 % of initial
same,"Body Weight, Mean",[2]; Day 7,95 % of initial
same,"Body Weight, Mean",[2]; Day 8,96 % of initial
same,"Body Weight, Mean",[2]; Day 9,97 % of initial
same,weight loss effect (in words),"[2]; daily administration, stopping administration from Day 5",weight loss effect disappeared from Day 6
same,"Feed intake a day, Mean",[3]; Day 0,2.8
same,"Feed intake a day, Mean",[3]; Day 1,2.4
same,"Feed intake a day, Mean",[3]; Day 2,2.7
same,"Feed intake a day, Mean",[3]; Day 3,2.4
same,"Feed intake a day, Mean",[3]; Day 4,2.5
same,"Feed intake a day, Mean",[3]; Day 5,2.6
same,"Feed intake a day, Mean",[3]; Day 6,2.7
same,"Feed intake a day, Mean",[3]; Day 7,3.0
same,"Feed intake a day, Mean",[3]; Day 8,3.3
same,"Feed intake a day, Mean",[3]; Day 9,3.5
Semaglutide [reference compound],"Feed intake a day, Mean",[4]; Day 0,3.7
same,"Feed intake a day, Mean",[4]; Day 1,2.1
same,"Feed intake a day, Mean",[4]; Day 2,3.3
same,"Feed intake a day, Mean",[4]; Day 3,2.8
same,"Feed intake a day, Mean",[4]; Day 4,2.3
same,"Feed intake a day, Mean",[4]; Day 5,2.9
same,"Feed intake a day, Mean",[4]; Day 6,2.7
same,"Feed intake a day, Mean",[4]; Day 7,3.2
same,"Feed intake a day, Mean",[4]; Day 8,2.4
same,"Feed intake a day, Mean",[4]; Day 9,3.7
same,"Feed intake a day, Mean",[4]; Day 10,2.7
same,"Feed intake a day, Mean",[4]; Day 11,2.5
same,"Feed intake a day, Mean",[4]; Day 12,2.4
same,"Feed intake a day, Mean",[4]; Day 13,3.0
same,"Feed intake a day, Mean",[4]; Day 14,2.5
same,"Feed intake a day, Mean",[4]; Day 15,2.1
same,"Feed intake a day, Mean",[4]; Day 16,2.5
same,"Feed intake a day, Mean",[4]; Day 17,2.0
same,"Feed intake a day, Mean",[4]; Day 18,2.2
same,"Feed intake a day, Mean",[4]; Day 19,3.7
same,"Body Weight, Mean",[5]; Day 0,100 % of initial
same,"Body Weight, Mean",[5]; Day 1,94 % of initial
same,"Body Weight, Mean",[5]; Day 2,91 % of initial
same,"Body Weight, Mean",[5]; Day 3,90 % of initial
same,"Body Weight, Mean",[5]; Day 4,87 % of initial
same,"Body Weight, Mean",[5]; Day 5,87 % of initial
same,"Body Weight, Mean",[5]; Day 6,85 % of initial
same,"Body Weight, Mean",[5]; Day 7,86 % of initial
same,"Body Weight, Mean",[5]; Day 8,83 % of initial
same,"Body Weight, Mean",[5]; Day 9,85 % of initial
same,"Body Weight, Mean",[5]; Day 10,84 % of initial
same,"Body Weight, Mean",[5]; Day 11,82 % of initial
same,"Body Weight, Mean",[5]; Day 12,81 % of initial
same,"Body Weight, Mean",[5]; Day 13,82 % of initial
same,"Body Weight, Mean",[5]; Day 14,81 % of initial
same,"Body Weight, Mean",[5]; Day 15,79 % of initial
same,"Body Weight, Mean",[5]; Day 16,79 % of initial
same,"Body Weight, Mean",[5]; Day 17,78 % of initial
same,"Body Weight, Mean",[5]; Day 18,77 % of initial
same,"Body Weight, Mean",[5]; Day 19,77 % of initial
same,weight loss (in words),[5]; daily administration,weight loss was consistent
